Test results taken from patent publication US9260467B2, “Sialic acid dimers” (priority 2011, dated 2016).

Target: T1, Siglec-2 (CD22) (Homo sapiens, UniProt P20273)
T1 sequence (P20273 20-847): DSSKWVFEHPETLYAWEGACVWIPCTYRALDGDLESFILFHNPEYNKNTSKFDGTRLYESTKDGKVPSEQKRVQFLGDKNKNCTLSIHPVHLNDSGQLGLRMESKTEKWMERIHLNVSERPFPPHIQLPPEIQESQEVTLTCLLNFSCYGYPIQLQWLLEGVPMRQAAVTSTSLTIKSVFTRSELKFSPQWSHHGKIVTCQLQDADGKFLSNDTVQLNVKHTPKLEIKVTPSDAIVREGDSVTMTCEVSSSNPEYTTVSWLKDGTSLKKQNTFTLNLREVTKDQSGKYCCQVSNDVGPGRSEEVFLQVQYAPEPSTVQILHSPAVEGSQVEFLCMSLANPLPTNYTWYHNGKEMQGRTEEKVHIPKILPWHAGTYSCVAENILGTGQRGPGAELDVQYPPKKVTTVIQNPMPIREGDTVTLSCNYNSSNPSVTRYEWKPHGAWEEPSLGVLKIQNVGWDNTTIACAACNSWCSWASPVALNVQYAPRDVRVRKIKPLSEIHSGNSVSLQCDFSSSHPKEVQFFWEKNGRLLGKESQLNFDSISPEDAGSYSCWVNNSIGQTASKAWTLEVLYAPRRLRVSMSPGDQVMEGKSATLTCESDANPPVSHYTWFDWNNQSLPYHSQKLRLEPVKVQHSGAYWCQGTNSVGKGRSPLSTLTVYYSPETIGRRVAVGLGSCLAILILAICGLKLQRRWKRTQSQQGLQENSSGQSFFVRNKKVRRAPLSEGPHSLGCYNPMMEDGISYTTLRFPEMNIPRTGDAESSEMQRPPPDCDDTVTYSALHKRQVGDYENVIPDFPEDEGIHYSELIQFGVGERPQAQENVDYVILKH
Test: new affinity assay: displacement of biotinylated compound 155 from sialidase-treated Daudi cells, FACS with streptavidin-PE
Format: binding
Design: endogenous in cells; host or cells: Daudi (human B-cell lymphoma line)
Settings: Table II; rIP values set relative to compound 38; Daudi cells, displacement of compound 155
Outline: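 Sialidase-treated Daudi cells preincubated on ice 15 min with inhibitor (1 mM to 1×10^−7 mM), then 20 min with biotinylated probe (4 μM as added); bound probe detected by streptavidin-PE flow cytometry. IC50 converted to relative inhibitory potency (rIP) against a reference substance.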

SMILES | rIP
CC(=O)N[C@H]1[C@H]([C@H](O)[C@H](O)CNC(=O)c2ccc(-c3ccccc3)cc2)O[C@@](OCC(=O)NCCCC(=O)Nc2ccc(NC(=O)CCCNC(=O)CO[C@]3(C(=O)[O-])C[C@H](O)[C@@H](NC(C)=O)[C@H]([C@H](O)[C@H](O)CNC(=O)c4ccc(-c5ccccc5)cc4)O3)cc2)(C(=O)[O-])C[C@@H]1O.[Na+].[Na+] [Compound 90] | 1445
CC(=O)N[C@H]1[C@H]([C@H](O)[C@H](O)CNC(=O)c2ccc(-c3ccccn3)cc2)O[C@@](OCCCSCCNC(=O)c2ccc(C(=O)NCCSCCCO[C@]3(C(=O)[O-])C[C@H](O)[C@@H](NC(C)=O)[C@H]([C@H](O)[C@H](O)CNC(=O)c4ccc(-c5ccccn5)cc4)O3)cc2)(C(=O)[O-])C[C@@H]1O.[Na+].[Na+] [Compound 77] | 95
CC(=O)N[C@H]1[C@H]([C@H](O)[C@H](O)CNC(=O)c2ccc(-c3ccccc3)cc2)O[C@@](OCCCSCCNC(=O)CCC(=O)NCCSCCCO[C@]2(C(=O)[O-])C[C@H](O)[C@@H](NC(C)=O)[C@H]([C@H](O)[C@H](O)CNC(=O)c3ccc(-c4ccccc4)cc3)O2)(C(=O)[O-])C[C@@H]1O.[Na+].[Na+] [Compound 36] | 23
CC(=O)N[C@H]1[C@H]([C@H](O)[C@H](O)CNC(=O)c2ccc(-c3ccccc3)cc2)O[C@@](OCCCSCCNC(=O)c2ccc(NC(=O)CCSCCCO[C@]3(C(=O)[O-])C[C@H](O)[C@@H](NC(C)=O)[C@H]([C@H](O)[C@H](O)CNC(=O)c4ccc(-c5ccccc5)cc4)O3)cc2)(C(=O)[O-])C[C@@H]1O.[Na+].[Na+] [Compound 54] | 7092
CC(=O)N[C@H]1[C@H]([C@H](O)[C@H](O)CNC(=O)Cc2ccc(-c3ccccc3)cc2)O[C@@](OCCCSCCNC(=O)c2ccc(-c3ccc(C(=O)NCCSCCCO[C@]4(C(=O)[O-])C[C@H](O)[C@@H](NC(C)=O)[C@H]([C@H](O)[C@H](O)CNC(=O)Cc5ccc(-c6ccccc6)cc5)O4)cc3)cc2)(C(=O)[O-])C[C@@H]1O.[Na+].[Na+] [Compound 128] | 19
CC(=O)N[C@H]1[C@H]([C@H](O)[C@H](O)CNC(=O)c2ccc(-c3ccccc3)cc2)O[C@@](OCCCSCCNC(=O)c2ccc(C(=O)NCCSCCCO[C@]3(C(=O)[O-])C[C@H](O)[C@@H](NC(C)=O)[C@H]([C@H](O)[C@H](O)CNC(=O)c4ccc(-c5ccccc5)cc4)O3)c3ccccc23)(C(=O)[O-])C[C@@H]1O.[Na+].[Na+] [Compound 34] | 899
CC(=O)N[C@H]1[C@H]([C@H](O)[C@H](O)CNC(=O)/C=C/c2ccccc2)O[C@@](OCCCSCCNC(=O)c2ccc(C(=O)NCCSCCCO[C@]3(C(=O)[O-])C[C@H](O)[C@@H](NC(C)=O)[C@H]([C@H](O)[C@H](O)CNC(=O)/C=C/c4ccccc4)O3)cc2)(C(=O)[O-])C[C@@H]1O.[Na+].[Na+] [Compound 83] | 73
CC(=O)N[C@H]1[C@H]([C@H](O)[C@H](O)CNC(=O)c2ccc(-c3ccccc3)cc2)O[C@@](OCCCSCCNC(=O)Cc2ccc(CC(=O)NCCSCCCO[C@]3(C(=O)[O-])C[C@H](O)[C@@H](NC(C)=O)[C@H]([C@H](O)[C@H](O)CNC(=O)c4ccc(-c5ccccc5)cc4)O3)cc2)(C(=O)[O-])C[C@@H]1O.[Na+].[Na+] [Compound 28] | 129
CC(=O)N[C@H]1[C@H]([C@H](O)[C@H](O)CNC(=O)c2ccc(-c3ccccc3)cc2)O[C@@](OCCCSCCC(=O)Nc2cccc(NC(=O)CCSCCCO[C@]3(C(=O)[O-])C[C@H](O)[C@@H](NC(C)=O)[C@H]([C@H](O)[C@H](O)CNC(=O)c4ccc(-c5ccccc5)cc4)O3)c2)(C(=O)[O-])C[C@@H]1O.[Na+].[Na+] [Compound 41] | 423
